We go through 3 compounds from patent US12201625B2, “Single nucleotide polymorphic alleles of human DP-2 gene for detection of susceptibility to hair growth inhibition by PGD2” (THE TRUSTEES OF THE UNIVERSITY OF PENNSYLVANIA, priority 2015, dated 2025).

The test system of one test is mouse hair follicles. The note with it: cited from earlier work.
The subject of test [1] is human hair follicles. Particulars: cited from earlier work.
The test system of test [2] is human hair follicles. Nature of the test: Hair follicle organ (explant) culture, growth over seven days. In kind it is cell-based. An excerpt: Tissue: Scalp was obtained from normally discarded human skin samples from CHTN and from men and women undergoing hair transplantation (IRB exempted study Protocol #818053). Hair follicle organ culture: Hair follicles were microdissected from discarded tissues from hair transplant patients and cultured for seven days as described by Philpott et al. (J. Dermatol. Sci. Suppl: S55-72. (1994)) in the presence or absence of PGD2 and/or DP-2 antagonist, with a change of culture medium every two days. Hair follicles were photographed at the beginning and end of the culture period. Hair follicle growth was measured from the photographs using Image J software.

The test system of test [3] is hair follicle keratinocytes. Nature of the test: Immunofluorescence staining of cultured hair follicles for Ki67 and active caspase 3. Format: cell-based, human. Here is the method:
Immunostaining: Immunofluorescence analysis with anti-Ki67 and anti-Caspase-3 was performed on cryosections of cultured hair follicles or whole mount hair follicles fixed in 4% PFA. Images were photographed with Leica fluorescence microscope.

A further test concerns C57BL mice. As to the kind of experiment: Topical application to depilated back skin of mice, hair cycle stage and hair length. Format: in vivo, mouse. As for the experimental part: Animal studies: The back skins of C57BL mice at 6-7 week were depilated. DP-2 antagonists were dissolved in 95% EtOH/2% Glycerol/3% PEG. 100 μL of each compound was spread on the shaved back skin once daily for 2 weeks starting from day 8 post depilation. At day 22 post depilation hair shafts were plucked for hair length measurement and skins were harvested for histological assessment of hair cycle stages.

Where [4] appears, read: topical once per day for two weeks, day 22 post depilation.

Consider `CCCCC/C=C/C=C1/C(=O)C=C[C@@H]1C/C=C\CCCC(=O)O` [15-dPGJ2, 15-deoxy-D12,14-prostaglandin J2], for which the hair growth entry in the test with mouse hair follicles and in the test with human hair follicles [1] was “inhibit hair growth” each time.
`CCCCC[C@H](O)/C=C/[C@H]1C(=O)C[C@H](O)[C@@H]1C/C=C\CCCC(=O)O` [PGD2, prostaglandin D2]: the hair growth result in the test with mouse hair follicles and in the test with human hair follicles [1] was “inhibit hair growth” in each case. For the same compound, the “patients whose hair follicles exhibited PGD2-mediated growth inhibition” value in the test with human hair follicles [2] (Group 1, of 35 patients tested) turned out to be 21; with human hair follicles [2] (Group 2, of 65 patients tested), 31; in the test on human hair follicles [2] (Groups 1 and 2 combined, 100 samples), 52. Besides, in the test on human hair follicles [2] (PGD2 10 μM added to culture medium, 7 days), the “growth of human hair follicles in explant culture” value is reported as “severely inhibited”. Also, in the test on human hair follicles [2] (explant culture, FIG. 1B), the “inhibitory effect on hair growth, dose dependence” value is “dose-dependent manner”. In test [3], the “apoptosis of hair follicle keratinocytes (active caspase 3)” value was “promoted apoptosis”. The “proliferation of hair follicle keratinocytes (Ki67)” value in test [3] was “suppressed proliferation”.
Take `CCN(Cc1cc(C(F)(F)F)ccc1-c1cc(CC(=O)O)ccc1OC)C(=O)NCc1ccccc1` [AM211]: the “anti-PGD2 activity at high doses” value in the test on human hair follicles [2] (99.5% pure preparation of AM211, FIG. 3B) is “sustained anti-PGD2 activity”. Besides, the “rescue of hair follicles from growth inhibition by PGD2” value with human hair follicles [2] (AM211 at 10 nM, PGD2 10 μM, 7 days) is recorded as “rescued hair follicles from the inhibition by PGD2”. For the same compound, the “anti-PGD2 effect at high doses” value in the test with human hair follicles [2] (AM211 preparation purified to 95% homogeneity, FIG. 3A) is “reduction in anti-PGD2 effect”. Further, the “hair follicles entering catagen (hair cycle stage)” value with C57BL mice (topical once per day for two weeks from day 8 post depilation, harvested day 22) is listed as “dose-dependent delay in hair follicles entering catagen”. For the same compound, in the test on C57BL mice (setting [4]), the hair shaft length entry was “longer hair shaft” and the “skin area with hair follicles continuing to grow” value is recorded as “larger area with hair follicles continuing to grow”.
